Each structure is given as a SMILES string. Where two headings read alike, the source gives them in different places.

Data set [1] can be described thus: Liver microsomes stability. The class given is in vitro ADME, human. The note with it: 1 μM compound, 1 mg/mL human liver microsomes, 1 mM NADPH; for half-life at 1 μM: read-out: T½ of HLM. The procedure: The compound to be tested with final concentration of 1 μM was incubated with 1 mg/mL of human liver microsomes and 1 mM of NADPH, and a group without NADPH was set as a negative control. The reaction mixture was quenched with methanol at five time points of 0, 5, 15, 30 and 60 min, respectively, then centrifuged at 2500 rpm for 20 min to precipitate proteins, and the resulting supernatant was analyzed by LC-MS/MS. The data was analyzed and the k value and half-life T1/2 was calculated, T1/2(min)=0.693/k.
Wherein, compounds a, b and c are active compounds disclosed in patent No. ZL201610154581.3.

The test system of data set [2] is A549 (non-small cell lung cancer). The data set can be described thus: NCI method SRB growth inhibition, A549. The class given is cell-based. The note with it: Homo sapiens; A549, treated 48 hours, SRB stain. An excerpt: (§1) In this embodiment, the method of National Cancer Institute (NCI) was used to evaluate the anti-tumor activity of the embodiment compounds in the present disclosure. Nine representative cell lines were selected for activity evaluation, including A549 (non-small cell lung cancer), HCT116 (colon cancer), SF295 (central nervous system tumor), LOX-IMVI (melanoma), 786-0 (renal cancer), K562 (leukemia), PC-3 (prostate cancer), OVCAR-3 (ovarian cancer) and HS 578T (breast cancer).
(§2) The specific method was as follows: 60 tumor cell lines of 9 kinds of human cancers were used to evaluate the inhibitory activity of the compound in vitro. A test group, a parallel control group and a vehicle control group were set up. The parallel control group was fixed immediately before the compound was added; the cells in the test group were fixed after being treated with the compound for 48 hours; the vehicle control group was fixed after an equal volume of complete medium was added for 48 hours. Sulforhodamine B (SRB) was used to stain, and the OD value was measured at a wavelength of 515 nm. The specific calculation method was as follows: the OD value of the parallel control group was recorded as Tz, the OD value of the vehicle control group was recorded as C, and the OD value of the test group was recorded as (Ti). If Ti≥Tz, it means that the cells still grow after the drug was added, and the growth rate %=[(Ti−Tz)/(C−Tz)]×100; if Ti<Tz, it means that the cells are killed after the drug was added, and the growth rate %=[(Ti−Tz)/Tz]×100. Three parameters were used to evaluate the anti-tumor activity of compounds in this method: 50% growth inhibitory concentration (GI50): i.e. the compound concentration at [(Ti−Tz)/(C−Tz)]×100=50; complete growth inhibitory concentration (TGI): the compound concentration at Ti=Tz; the drug concentration required to kill 50% of the cells (LC50): i.e. the compound concentration at [(Ti−Tz)/Tz]×100=−50.
(§3) The inhibitory activities of the embodiment compounds on nine representative tumor cell lines were listed in detail in Table 1. Wherein, the GI50 value means “50% growth inhibition rate”, that is, the concentration of the compound to be tested when it can inhibit […] of cell growth; “ND” means not detected.
On the technique in general: In SRB staining, fixed cells bind dye roughly in proportion to their protein.

In data set [3] the test system is K562 (leukemia). Put plainly: NCI method SRB growth inhibition, K562. In kind it is cell-based. The note with it: Homo sapiens; K562, treated 48 hours, SRB stain.
Source text: as §1, §2, §3

Data set [4] deals with LOX-IMVI (melanoma). Put plainly: NCI method SRB growth inhibition, LOX-IMVI. In kind it is cell-based. To be noted: Homo sapiens, treated 48 hours, SRB stain.
Source text: as §1, §2, §3

For data set [5], the system named is SF295 (central nervous system tumor). Put plainly: NCI method SRB growth inhibition, SF295. The class given is cell-based. The note with it: Homo sapiens, SF-295; SF295, treated 48 hours, SRB stain.
Source text: as §1, §2, §3

Data set [6] deals with PC-3 (prostate cancer). The data set can be described thus: NCI method SRB growth inhibition, PC-3. The class given is cell-based. The note with it: Homo sapiens; PC-3, treated 48 hours, SRB stain.
Source text: as §1, §2, §3

The subject of data set [7] is OVCAR-3 (ovarian cancer). The data set can be described thus: NCI method SRB growth inhibition, OVCAR-3. The note with it: Homo sapiens; OVCAR-3, treated 48 hours, SRB stain. In kind it is cell-based.
Source text: as §1, §2, §3

Data set [8] has as its system HCT116 (colon cancer). The data set can be described thus: NCI method SRB growth inhibition, HCT116. The class given is cell-based. To be noted: Homo sapiens, HCT-116; HCT116, treated 48 hours, SRB stain.
Source text: as §1, §2, §3

Data set [9] concerns HS 578T (breast cancer). Put plainly: NCI method SRB growth inhibition, HS 578T. The class given is cell-based. The note with it: Homo sapiens, HS578T, treated 48 hours, SRB stain.
Source text: as §1, §2, §3

Data set [10] relates to 786-0 (renal cancer). Put plainly: NCI method SRB growth inhibition, 786-0. In kind it is cell-based. The note with it: Homo sapiens; 786-0, treated 48 hours, SRB stain.
Source text: as §1, §2, §3

For the compound `[2H]C([2H])([2H])N1C(=O)c2cc(Oc3cc(C)cc(C)c3)c(NC(=O)c3cc(OC)c(OC)c(OC)c3Br)cc2NC(=O)[C@@H]1CC(=O)N(CC)CC` [Compound 18, (S)-2-bromo-N-[3-[2-(diethylamino)-2-oxoethyl]-7-(3,5-dimethylphenoxy)-4-trideuteromethyl-2,5-dioxo-2,3,4,5-tetrahydro-1H-benzo[e][1,4]diazepin-8-yl]-3,4,5-trimethoxybenzamide], in [1], the microsomal CLint (in general, the rate of metabolic loss divided by the concentration) at 1 μM was found to be 65.1 µL/min/mg. The half-life at 1 μM in [1] (human, human liver microsomes) turned out to be 10.6 min. Moreover, the GI50 in [2], in data set [3], in [4], in data set [5], in [6] and in [7] was less than 5 nM throughout. In addition, the GI50 – broadly, the concentration giving 50% growth inhibition – in [8] is less than 5 nM; in data set [9], 15.4 nM; in data set [10], less than 5 nM.
For the compound `[2H]C([2H])([2H])Oc1cc(C(=O)Nc2cc3c(cc2Oc2cc(C)cc(C)c2)C(=O)N[C@@H](CC(=O)N(OC)C([2H])([2H])[2H])C(=O)N3)c(Br)c(OC([2H])([2H])[2H])c1OC([2H])([2H])[2H]` [Compound 41], the microsomal CLint at 1 μM in data set [1] is 7.6 µL/min/mg. Also, the half-life at 1 μM in data set [1] (human, human liver microsomes) was 91.2 min. Moreover, the GI50 in data set [2], in data set [3], in data set [4], in data set [5], in data set [6] and in [7] was less than 5 nM throughout. In addition, the concentration for 50% growth inhibition (GI50) in data set [8], in data set [9] and in data set [10] was less than 5 nM each time.
With `[2H]C([2H])([2H])Oc1cc(C(=O)Nc2cc3c(cc2Oc2cc(C)cc(C)c2)C(=O)N(C)[C@@H](CC(=O)N(C)OC)C(=O)N3)c(Br)c(OC([2H])([2H])[2H])c1OC([2H])([2H])[2H]` [Compound 32], the half-life at 1 μM in [1] was 24.7 min. The microsomal CLint at 1 μM in [1] (human, human liver microsomes) turned out to be 28.1 µL/min/mg. Also, the GI50 was less than 5 nM in data set [2]; less than 5 nM in [3]; less than 5 nM in [4]; 5 nM in [5]; less than 5 nM in data set [6]; less than 5 nM in [7]. The GI50 in [8], in data set [9] and in data set [10] was less than 5 nM each time.
Take `[2H]C([2H])([2H])Oc1cc(C(=O)Nc2cc3c(cc2Oc2cc(C)cc(C)c2)C(=O)N(C)[C@@H](CC(=O)N2CCN(C)CC2)C(=O)N3)c(Br)c(OC([2H])([2H])[2H])c1OC([2H])([2H])[2H]` [Compound 28]: the half-life at 1 μM in data set [1] stood at 41.8 min. Further, the microsomal CLint at 1 μM in data set [1] (human, human liver microsomes) turned out to be 16.8 µL/min/mg. The GI50 in [2] was less than 5 nM; in data set [3], less than 5 nM; in [4] it was less than 5 nM; in data set [5], 18 nM; in data set [6], less than 5 nM; in [7], less than 5 nM. Further, the values for the GI50 in data set [8], in data set [9] and in [10] were less than 5 nM, less than 5 nM and 66 nM, respectively.
Regarding `[2H]C([2H])([2H])Oc1cc(C(=O)Nc2cc3c(cc2Oc2cc(C)cc(C)c2)C(=O)N[C@@H](CC(=O)N2CCC(F)(F)CC2)C(=O)N3)c(Cl)c(OC([2H])([2H])[2H])c1OC([2H])([2H])[2H]` [Compound 10, (S)-2-chloro-N-[3-[2-(4,4-difluoropiperidin-1-yl)-2-oxoethyl]-7-(3,5-dimethylphenoxy)-2,5-dioxo-2,3,4,5-tetrahydro-1H-benzo[e][1,4]diazepin-8-yl]-3,4,5-tris(trideuteromethoxy)benzamide], the microsomal CLint at 1 μM in [1] is 10.2 µL/min/mg. For the same compound, in data set [1] (human, human liver microsomes), the half-life at 1 μM was 68 min. In addition, the GI50 in data set [2] is 35.4 nM; in data set [3], less than 5 nM; in data set [4], less than 5 nM; in data set [5] it was 10.7 nM; in data set [6] it was less than 5 nM; in data set [7], less than 5 nM. Moreover, the GI50 in data set [8] is 34.7 nM; in [9], 6.4 nM; in [10], 37 nM.
Take `[2H]C([2H])([2H])c1cc(Oc2cc3c(cc2NC(=O)c2cc(OC)c(OC)c(OC)c2Cl)NC(=O)[C@H](CC(=O)N(CC)CC)NC3=O)cc(C([2H])([2H])[2H])c1` [Compound 23, (S)-2-chloro-N-[3-[2-(diethylamino)-2-oxoethyl]-7-[3,5-bis(trideuteromethyl)phenoxy]-2,5-dioxo-2,3,4,5-tetrahydro-1H-benzo[e][1,4]diazepin-8-yl]-3,4,5-trimethoxybenzamide]: in [1], the microsomal CLint at 1 μM amounted to 26.9 µL/min/mg. For the same compound, in data set [1] (human, human liver microsomes), the half-life at 1 μM is 25.8 min. Also, the GI50 in data set [2] is 11.6 nM; in data set [3], less than 5 nM; in data set [4], less than 5 nM; in data set [5] it was 10.5 nM; in data set [6] it was 6.1 nM; in [7], 6.6 nM. In addition, the GI50 in data set [8] is less than 5 nM; in [9] it was 24.9 nM; in data set [10], 67.5 nM.
Compound `[2H]c1c(Oc2cc3c(cc2NC(=O)c2cc(OC)c(OC)c(OC)c2Cl)NC(=O)[C@H](CC(=O)N(CC)CC)NC3=O)c([2H])c(C([2H])([2H])[2H])c([2H])c1C([2H])([2H])[2H]` [Compound 25, (S)-2-chloro-N-[3-[2-(diethylamino)-2-oxoethyl]-7-[3,5-bis(trideuteromethyl)-2,4,6-trideuterophenoxy]-2,5-dioxo-2,3,4,5-tetrahydro-1H-benzo[e][1,4]diazepin-8-yl]-3,4,5-trimethoxybenzamide] returned a microsomal CLint at 1 μM in data set [1] of 29.8 µL/min/mg. Also, in data set [1] (human, human liver microsomes), the half-life at 1 μM turned out to be 23.3 min. Moreover, the GI50 in data set [2] was 19.1 nM; in data set [3], less than 5 nM; in data set [4], less than 5 nM; in [5] it was 14.2 nM; in data set [6] it was 5 nM; in data set [7] it was 8.3 nM. Further, the GI50 in data set [8] was less than 5 nM; in [9], 30.3 nM; in data set [10], 15.8 nM.
Regarding `[2H]C([2H])([2H])Oc1cc(C(=O)Nc2cc3c(cc2Oc2cc(C)cc(C)c2)C(=O)N[C@@H](CC(=O)N(OC([2H])([2H])[2H])C([2H])([2H])[2H])C(=O)N3)c(Br)c(OC([2H])([2H])[2H])c1OC([2H])([2H])[2H]` [Compound 37], the microsomal CLint at 1 μM in [1] was 7.7 µL/min/mg. Further, the half-life at 1 μM in data set [1] (human, human liver microsomes) was determined as 90 min. Moreover, the GI50 was less than 5 nM in data set [2]; less than 5 nM in data set [3]; less than 5 nM in data set [4]; 12 nM in data set [5]; less than 5 nM in data set [6]; less than 5 nM in data set [7]. Also, the GI50 was less than 5 nM in [8], less than 5 nM in data set [9] and 8.6 nM in data set [10].
In turn, `[2H]C([2H])([2H])Oc1cc(C(=O)Nc2cc3c(cc2Oc2cc(C)cc(C)c2)C(=O)N(C)[C@@H](CC(=O)N(OC([2H])([2H])[2H])C([2H])([2H])[2H])C(=O)N3)c(Cl)c(OC([2H])([2H])[2H])c1OC([2H])([2H])[2H]` [Compound 39] registered a microsomal CLint at 1 μM in data set [1] of 13.7 µL/min/mg. Further, in data set [1] (human, human liver microsomes), the half-life at 1 μM was determined as 50.6 min. Further, the GI50 is less than 5 nM in [2]; less than 5 nM in [3]; less than 5 nM in [4]; 12 nM in data set [5]; less than 5 nM in data set [6]; less than 5 nM in data set [7]. In addition, the GI50 in data set [8] amounted to 7 nM; in data set [9], 6 nM; in [10], 9 nM.

The values are drawn from patent US12577213B2 (NINGBO COMBIREG PHARMACEUTICAL TECHNOLOGY CO., LTD., priority 2020, dated 2026).
